Source: patent US9447083B2, “N-acylhydrazone derivatives for selective T cell inhibitor and anti-lymphoid malignancy drug” (CHONG KUN DANG PHARMACEUTICAL CORP., priority 2012, dated 2016)

Assays:
[1] = system: alloantigen-specific T cells; experiment: Inhibitory effect against alloantigen-specific T cells in vitro (mixed lymphocyte reaction, CFSE / 7-AAD); assay type: cell-based, mouse; conditions: for Apoptosis % (mean ± SD) Primary Response / Apoptosis % (mean ± SD) Secondary Response: 72 hours; for Apoptosis % (mean ± SD) Primary Response: vehicle 30.91 ± 3.80; for Apoptosis % (mean ± SD) Secondary Response: vehicle 39.10 ± 4.10
Protocol: The lymph nodes and spleens were aseptically collected from normal C57BL/6 mice (8-12 week old, female, 20±2 g) and were ground with adding of RPMI medium. Then, the ground tissues were passed through a cell strainer (BD Falcon) to make single cell suspensions. The single cell suspension of the spleen was centrifuged at 1200 rpm for 5 minutes. The supernatant was removed, and then 1 mL of ammonium chloride/potassium bicarbonate (ACK) lysis buffer (0.15 M NH4Cl, 1 mM KHCO3, 0.1 mM Na2EDTA) was added to the cells, which were then vortexed for 1 minute and washed with RPMI medium. […] The incubated cell suspension was added with 10 mL of MACS buffer, centrifuged for 5 minutes, washed, and then re-suspended in 2 mL of MACS buffer. The suspended cells were placed in the autoMACS Pro Separator (Miltenyi Biotec), and T cells bound to CD90.2 microbeads were isolated. The isolated T cells were washed with phosphate buffered saline (PBS), and then re-suspended in PBS at a concentration of 1×10^8 cells/mL. Normal BALB/c mice (10-12 week old, female, 20-23 g) were irradiated with 950 rad of γ radiation using IBL 437C irradiator (CIS bio international), and then 100 μL of the above-prepared T cell suspension of C57BL/6 mice were injected into the tail vein of the BALB/c mice. At 3 days after the cell injection, the mice were sacrificed, and the spleens were obtained. An erythrocyte-free single cell suspension was made from the obtained spleens in the same manner as described above, and donor T cells were separated from the spleen cell suspension using the autoMACS Pro Separator, thereby preparing secondary responder cells. Meanwhile, T cells were isolated from normal C57BL/6 mice in the same manner as described above, thereby preparing primary responder cells. Each of the primary and secondary responder cells were re-suspended in 1 mL of 1% FBS-containing PBS, and treated with 3 μM of carboxyfluorescein diacetate succinimidyl ester (CFSE, Invitrogen), and then allowed to react at room temperature for 4 minutes. To stop the reaction, cold-stored 5% FBS-containing PBS was added to the cell suspension, followed by washing. The washed cells were re-suspended in 10% FBS-containing RPMI medium at a concentration of 2×10^6/mL. The spleens of normal BALB/c mice (8-12 week old, female, 20±2 g) were aseptically collected. The erythrocyte-free spleen cells were prepared in the same manner as described above, and then re-suspended in 1 mL of PBS. 0.5 mg/mL of Mitomycin-C(Sigma) was added to the suspension at a concentration of 0.5 μg/mL, and the cells were incubated at 37° C. for 20 minutes, and then washed three times with an excessive amount of PBS. The washed cells were re-suspended in 10% FBS-containing RPMI medium at a concentration of 4×10^6 cells/mL, thereby preparing stimulator cells. The primary and secondary responder cells were mixed with the stimulator cells at a ratio of 1:1 separately, and 200 μL of each cell mixtures was dispensed into each well of a round bottom 96-well plate (Costar). Then, the cells were treated with 10 μL of Compound 229 diluted in RPMI medium at various concentrations, and incubated in a 5% CO2 incubator at 37° C. for 72 hours. In a vehicle control group, the cells were 10 μL of 0.2% DMSO-containing RPMI medium. The incubated cells were placed into 5-mL FACS tubes and washed with 1 mL of fluorescence activated cell sorting (FACS) buffer (1% FBS and 0.1% sodium azaide in PBS). The washed cells were re-suspended in 0.1 mL of FACS buffer, and then treated with 1 μg of mouse immunoglobulin G (IgG, e-Biosciences) in order to prevent the non-specific binding of antibody, followed by incubation at 4° C. for 15 minutes. Then, the cells were stained with 0.5 μg of phycoerythrin-conjugated anti-mouse H-2K^b mAb (e-Biosciences) and stained at 4° C. for 30 minutes. After the staining, the cells were washed twice with 1 mL of FACS buffer, re-suspended in 0.1 mL of FACS buffer, stained with 7-AAD at room temperature for 5 minutes. […]

Jurkat = experiment: Apoptosis of lymphoid malignancy cell lines (Annexin V / 7-AAD): Jurkat; assay type: cell-based; conditions: Homo sapiens, Acute T cell leukemia, 24 hours, read-out: Administration Dose (mean ± SD, μmol/L) Lethal Dose 50 (Apoptosis)
Protocol: (§1) Each of the acute T cell leukemia cell lines Jurkat, Molt4 and CCRF-CEM, the acute B cell leukemia cell line Raji and the […] cell lines KMS11, KMS12BM, KMS26, KMS28BM, and IM9 was re-suspended in 10% FBS-containing RPMI medium at a concentration of 1.5×10^5 cells/mL, and 200 μL of each of the cell suspensions was cultured in a flat bottom 96-well plate (Costar). The acute NK cell lymphoma cell line NK-92MI was re-suspended in α-MEM medium (supplemented with 20% FBS, 1×MEM vitamine solution, 50 μM 2-mercaptoethanol and 1× penicillin/streptomycin) at a concentration of 1.5×10^5 cells/mL, and 200 μL of the cell suspension was cultured in a flat bottom 96-well plate. The cells in each well was treated with 10 μL of each of 0.1, 0.25, 0.5, 0.75 and 1 μM of the compound diluted with RPMI medium, followed by that the cells were incubated in a 5% CO2 incubator at 37° C. for 24 hours. In a vehicle control group, cells were treated with 10 μL of medium containing 0.05% dimetylsulfoxide (DMSO, Sigma).
The cells were collected, and then the apoptosis thereof was analyzed by a flow cytometer after staining with Annexin V-7-AAD. The incubated cells were collected, placed in a 5-mL FACS tube (BD Falcon) and washed with 1 mL of fluorescence activated cell sorting (FACS) buffer (1%. FBS and 0.1% sodium azaide in PBS). The cells were re-suspended in 0.1 mL of FACS buffer, followed by that the cells were treated and stained with phycoerythrin-Annexin V at room temperature for 10 minutes. After 10 minutes of staining, the cells were treated and stained with 7-AAD at room temperature for 5 minutes. The stained cells were suspended in 0.3 mL of FACS buffer, and then analyzed by a flow cytometer. […] Thus, compounds 065, 108, 229 and 457 of the present invention can be used as a novel anti-lymphoid malignancy drug.

KMS11 = experiment: Apoptosis of lymphoid malignancy cell lines: KMS11; assay type: cell-based; conditions: Homo sapiens, KMS-11; KMS11, Multiple myeloma, 24 hours; read-out: Administration Dose (mean ± SD, μmol/L) Lethal Dose 50 (Apoptosis)
Protocol: as §1, with “In a vehicle control group, cells were treated with 10 μL of medium containing 0.05% dimetylsulfoxide (DMSO, Sigma).” left out
The cells were collected, and then the apoptosis thereof was analyzed by a flow cytometer after staining with Annexin V-7-AAD. The incubated cells were collected, placed in a 5-mL FACS tube (BD Falcon) and washed with 1 mL of fluorescence activated cell sorting (FACS) buffer (1%. FBS and 0.1% sodium azaide in PBS). […] The stained cells were suspended in 0.3 mL of FACS buffer, and then analyzed by a flow cytometer. […]

SMILES: Cc1cc(C)c(OCC(=O)N/N=C/c2ccc3cc[nH]c3c2)c(C2CCOC2)c1 (centres unmarked) [Compound 229, (E)-N′-((1H-indol-6-yl)methylene)-2-(2,4-dimethyl-6-(tetrahydrofuran-3-yl)phenoxy)acetohydrazide]
- Apoptosis % (mean ± SD) Primary Response ([1]; 0.125 μM, 7-AAD): 28.42 ± 5.31%
- Apoptosis % (mean ± SD) Secondary Response ([1]; 0.125 μM, 7-AAD): 41.40 ± 4.35%
- increase of apoptosis compared to the vehicle control group, secondary response ([1]; 0.25 μM or higher, 7-AAD): 21-42%
- Apoptosis % (mean ± SD) Primary Response ([1]; 0.25 μM, 7-AAD): 31.20 ± 4.26%
- Apoptosis % (mean ± SD) Secondary Response ([1]; 0.25 μM, 7-AAD): 60.27 ± 6.10 %
- increase of apoptosis compared to the vehicle control group, primary response ([1]; 0.5 μM or higher, 7-AAD): 14-19%
- ratio of T cells (CFSE low) that proliferated in response to the alloantigen, of the total T cells ([1]; 0.5 μM or higher, vehicle control 50%): ≤ 3%
- Apoptosis % (mean ± SD) Primary Response ([1]; 0.5 μM, 7-AAD): 45.01 ± 5.48 %
- Apoptosis % (mean ± SD) Secondary Response ([1]; 0.5 μM, 7-AAD): 81.70 ± 5.62 %
- Apoptosis % (mean ± SD) Primary Response ([1]; 1 μM, 7-AAD): 50.37 ± 6.19 %
- Apoptosis % (mean ± SD) Secondary Response ([1]; 1 μM, 7-AAD): 80.37 ± 7.16 %
- proliferation of the alloantigen-specific T cells, secondary response ([1]; T cells activated primarily by the alloantigen in vivo, reacted with the same antigen in vitro): effectively inhibited
- EC50 (Jurkat): 0.62 µmol/L
- EC50 (KMS11): 0.35 ± 0.09 µmol/L
